Assay results reported in ChEMBL document CHEMBL1151791, “Derivatives of 1,4-bis(3-hydroxycarbonyl-4-hydroxyl)styrylbenzene as PTP1B inhibitors with hypoglycemic activity” (Bioorg Med Chem, 2008).
Calls of active or inactive are those of the source. No cut-off for these calls is given here.

Key:
[1] = Inhibition of PTP YOP
[2] = Inhibition of YPTP1
[3] = molecular target: T1, Tyrosine-protein phosphatase non-receptor type 2 (Homo sapiens, UniProt P17706); experiment: Inhibition of TC-PTP
T1 sequence (P17706 whole entry): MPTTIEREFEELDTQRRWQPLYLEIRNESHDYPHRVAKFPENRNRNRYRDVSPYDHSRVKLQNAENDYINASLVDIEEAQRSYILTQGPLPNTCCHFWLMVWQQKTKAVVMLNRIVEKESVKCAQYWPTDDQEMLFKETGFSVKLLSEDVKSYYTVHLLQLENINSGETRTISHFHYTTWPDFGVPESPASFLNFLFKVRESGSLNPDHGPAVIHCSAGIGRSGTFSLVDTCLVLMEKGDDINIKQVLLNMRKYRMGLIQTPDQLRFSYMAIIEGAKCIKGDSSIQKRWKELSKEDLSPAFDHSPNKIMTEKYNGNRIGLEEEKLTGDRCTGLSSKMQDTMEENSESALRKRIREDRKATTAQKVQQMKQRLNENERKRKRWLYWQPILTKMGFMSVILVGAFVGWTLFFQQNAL

[4] = Inhibition of PTP LAR-D1
[5] = molecular target: Tyrosine-protein phosphatase non-receptor type 6 (Homo sapiens, UniProt P29350); experiment: Inhibition of PTP SHP1
Tyrosine-protein phosphatase non-receptor type 6, sequence (P29350 whole entry): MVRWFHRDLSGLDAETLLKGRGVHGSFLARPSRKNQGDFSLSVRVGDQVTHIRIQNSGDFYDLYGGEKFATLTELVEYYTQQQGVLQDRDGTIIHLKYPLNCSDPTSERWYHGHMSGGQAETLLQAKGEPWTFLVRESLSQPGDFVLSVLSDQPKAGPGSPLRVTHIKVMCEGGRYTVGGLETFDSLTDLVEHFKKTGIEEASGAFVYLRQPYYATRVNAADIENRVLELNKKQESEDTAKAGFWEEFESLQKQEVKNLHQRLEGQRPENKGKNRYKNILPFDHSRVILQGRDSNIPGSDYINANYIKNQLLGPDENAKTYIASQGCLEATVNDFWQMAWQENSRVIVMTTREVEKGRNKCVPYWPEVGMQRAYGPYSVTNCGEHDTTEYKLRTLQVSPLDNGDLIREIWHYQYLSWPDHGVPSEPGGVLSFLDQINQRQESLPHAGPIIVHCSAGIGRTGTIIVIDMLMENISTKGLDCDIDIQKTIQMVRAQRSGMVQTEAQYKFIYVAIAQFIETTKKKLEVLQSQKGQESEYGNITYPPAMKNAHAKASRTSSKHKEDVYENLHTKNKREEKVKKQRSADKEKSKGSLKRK

[6] = molecular target: T2, Tyrosine-protein phosphatase non-receptor type 1 (Homo sapiens, UniProt P18031); experiment: Inhibition of PTP1B
T2 sequence (P18031 whole entry): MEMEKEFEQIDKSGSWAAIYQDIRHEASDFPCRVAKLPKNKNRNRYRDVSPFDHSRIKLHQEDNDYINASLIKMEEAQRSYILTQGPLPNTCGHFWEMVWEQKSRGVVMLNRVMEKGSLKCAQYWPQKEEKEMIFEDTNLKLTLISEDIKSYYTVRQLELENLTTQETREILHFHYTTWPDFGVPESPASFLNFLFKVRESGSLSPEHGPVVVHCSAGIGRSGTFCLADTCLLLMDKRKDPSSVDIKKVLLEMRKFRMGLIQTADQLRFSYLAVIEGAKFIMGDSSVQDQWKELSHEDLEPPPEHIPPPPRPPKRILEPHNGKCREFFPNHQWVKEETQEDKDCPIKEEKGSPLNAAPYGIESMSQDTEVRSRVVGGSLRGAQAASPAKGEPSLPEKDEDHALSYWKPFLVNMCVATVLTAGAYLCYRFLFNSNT

Mus musculus [7] = experiment: Toxicity in kidney of high fat diet fed C57BL/6J Jms Slc mouse at 160 mg/day/kg for 4 weeks administered with diet; type: organism-based; settings: in vivo, po, 672 h
Mus musculus [8] = experiment: Toxicity in lungs of high fat diet fed mouse C57BL/6J Jms Slc at 160 mg/day/kg for 4 weeks administered with diet; type: organism-based, Lung; settings: in vivo, po, 672 h
Mus musculus [9] = experiment: Reduction in blood glucose level in high fat diet fed C57BL/6J Jms Slc mouse at 160 mg/day/kg administered with diet measured after 27 days; type: functional, organism-based
Mus musculus [10] = experiment: Toxicity in liver of high fat diet fed C57BL/6J Jms Slc mouse at 160 mg/day/kg for 4 weeks administered with diet; type: organism-based; settings: in vivo, po, 672 h
Mus musculus [11] = experiment: Normalization of blood glucose level in high fat diet fed C57BL/6J Jms Slc mouse at 160 mg/day/kg administered with diet; type: functional, organism-based

`O=C(O)c1ccc(/C=C/c2ccc(O)c(C(=O)O)c2)cc1O` showed an IC50 [1] of 175 µM, an IC50 [2] of 370 µM and an IC50 [3] of 567 µM. For the same compound, the IC50 [4] was > 2000 µM, the IC50 [5] was 231 µM and the IC50 [6] was 32 µM.

Work on `O=C(O)c1cc(/C=C/c2ccccc2)cc(Br)c1O` yielded an IC50 [1] of 91 µM, an IC50 [2] of 153 µM and an IC50 [3] of 173 µM. For the same compound, the IC50 [4] was > 1000 µM, the IC50 [5] was 140 µM and the IC50 [6] was 30 µM.

For `O=C(O)c1cc(/C=C/c2ccc(/C=C/c3cc(Br)c(O)c(C(=O)O)c3)cc2)cc(Br)c1O`, the IC50 [1] was 10 µM, the Activity (Mus musculus [7]) was “Non-toxic” and the Activity (Mus musculus [8]) was “Non-toxic”. For the same compound, the Activity (Mus musculus [9]) was “Active”, the IC50 [2] was 13 µM and the IC50 [3] was 37 µM. The IC50 [4] was > 300 µM, the IC50 [5] was 15 µM and the Activity (Mus musculus [10]) was “Non-toxic”. For the same compound, the Activity (Mus musculus [11]) was “Active” and the IC50 [6] was 3 µM.

For `COc1cc(/C=C/c2cc(C(=O)O)c(O)c(-c3ccco3)c2)ccc1/C=C/c1cc(C(=O)O)c(O)c(-c2ccco2)c1`, the IC50 [1] was 5 µM, the IC50 [2] was 10 µM and the IC50 [3] was 11 µM. It also gave an IC50 [4] of 162 µM, an IC50 [5] of 6 µM and an IC50 [6] of 4 µM.

For `O=C(O)c1cc(/C=C/c2ccc(/C=C/c3cc(C(=O)O)c(O)c(-c4ccco4)c3)cc2)cc(-c2ccco2)c1O`, the IC50 [1] was 5 µM, the IC50 [2] was 7 µM and the IC50 [3] was 8 µM. For the same compound, the IC50 [4] was > 200 µM, the IC50 [5] was 6 µM and the IC50 [6] was 0.53 µM.

With `O=C(O)c1cc(/C=C/c2ccc(/C=C/c3ccc(O)c(C(=O)O)c3)cc2)ccc1O` the IC50 [1] was 13 µM, the IC50 [2] was 20 µM and the IC50 [3] was 27 µM. The IC50 [4] was 413 µM, the IC50 [5] was 19 µM and the IC50 [6] was 5 µM.

In the case of `Oc1ccc(/C=C/c2cc(O)cc(O)c2)cc1` [RESVERATROL], the IC50 [6] is reported as > 1000 µM.

In the case of `O=C(O)c1cc(-c2ccccc2)cc(Cc2cc(-c3ccccc3)cc(C(=O)O)c2O)c1O`, the IC50 [2] is reported as 86 µM and the IC50 [4] is reported as > 2000 µM.

With `O=C(O)c1cc(Cc2cc(C(=O)O)c(O)c(-c3ccccc3)c2)cc(-c2ccccc2)c1O` the IC50 [2] was 234 µM and the IC50 [4] was > 2000 µM.

Compound `O=C(O)c1cc(/C=C/c2cc(C(=O)O)c(O)c(-c3ccccc3)c2)ccc1O` has an IC50 [6] of 125 µM.

`COc1c(C(=O)O)cc(/C=C/c2ccc(C(=O)O)c(O)c2)cc1-c1ccco1` showed an IC50 [6] of 194 µM.

Compound `O=C(O)c1ccc(/C=C/c2cc(Br)c(O)c(C(=O)O)c2)cc1O` has an IC50 [6] of 64 µM.

`COc1cc(/C=C/c2cc(Br)c(O)c(C(=O)O)c2)ccc1/C=C/c1cc(Br)c(O)c(C(=O)O)c1` gave an IC50 [1] of 12 µM, an IC50 [2] of 21 µM and an IC50 [3] of 32 µM. The IC50 [4] was 420 µM, the IC50 [5] was 10 µM and the IC50 [6] was 6 µM.

Work on `O=C(O)c1cc(/C=C/c2ccccc2)cc(-c2ccccc2)c1O` yielded an IC50 [1] of 44 µM, an IC50 [2] of 59 µM and an IC50 [3] of 173 µM. The IC50 [4] was > 1000 µM, the IC50 [5] was 78 µM and the IC50 [6] was 13 µM.

Work on `O=C(O)c1cc(/C=C/c2ccccc2)ccc1O` yielded an IC50 [1] of 61 µM, an IC50 [2] of 114 µM and an IC50 [3] of 234 µM. The IC50 [4] was > 2000 µM, the IC50 [5] was 126 µM and the IC50 [6] was 34 µM.
